Measured values from PubChem BioAssay AID256 (DTP/NCI, 2004).
“And” between values parts separate entries of the source, which are not always exact repeats. Equal values may be shown once. Toxic doses and inconclusive results are not listed. The calls were made as follows: active = survival T/C of 150% or more; inactive = T/C below 125% in these data.

System: CD2F1 mice, L1210 leukemia ip, survival T/C
Experiment: NCI In Vivo Anticancer Drug Screen. Data for tumor model L1210 Leukemia (intraperitoneal) in CD2F1 (CDF1) mice
Details: endpoint: mean survival time, higher = longer survival
Procedure, shortened: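 In this screen, transplantable tumors were grown in mice given either the compound or its vehicle. Results were expressed as the treated measurement relative to the control measurement.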

[1] = dose: 100.0 mg/kg/injection, schedule: Q04DX003 (ip), vehicle: saline with Tween-80
[2] = dose: 200.0 mg/kg/injection, schedule: Q04DX003 (ip), vehicle: saline with Tween-80
[3] = dose: 400.0 mg/kg/injection, schedule: Q04DX003 (ip), vehicle: saline with Tween-80
[4] = dose: 25.0 mg/kg/injection, schedule: Q01DX009 (ip), vehicle: saline

Measured: T/C

COC(=O)C1CC2C(=O)CCCCCCC2C1O (stereo not given)
inactive: dose: 100.0 mg/kg/injection, schedule: Q01DX001 (ip), vehicle: saline with Tween-80 93 % of control | dose: 200.0 mg/kg/injection, schedule: Q01DX001 (ip), vehicle: saline with Tween-80 101 % of control | dose: 400.0 mg/kg/injection, schedule: Q01DX001 (ip), vehicle: saline with Tween-80 98 % of control

CCCCCCCCCCCCCCCCOc1ccc(S(=O)(=O)NC2CCCCC2)cc1[N+](=O)[O-]
inactive: [1] 90 % of control | [2] 93 % of control | [3] 94 % of control

CCC(CCC(C)C1CCC2C3CC=C4CC(O)CCC4(C)C3CCC12C)C(C)C (stereo not given) (tested in a mixture with another compound)
inactive: dose: 25.0 mg/kg/injection, schedule: Q01DX009 (ip), vehicle: acetone 93 % of control | dose: 100.0 mg/kg/injection, schedule: Q01DX009 (ip), vehicle: acetone 87 % of control

ClC1CN2CCC1CC2 (stereo not given)
inactive: dose: 12.5 mg/kg/injection, schedule: Q01DX009 (ip), vehicle: saline 95 % of control | [4] 90 % of control and 105 % of control | dose: 50.0 mg/kg/injection, schedule: Q01DX009 (ip), vehicle: saline 93 % of control and 94 % of control

CCCCCOC(=S)S
inactive: dose: 9.37 mg/kg/injection, schedule: Q04DX003 (ip), vehicle: Klucel (hydroxypropylcellulose) (HPC) 86 % of control | dose: 37.5 mg/kg/injection, schedule: Q04DX003 (ip), vehicle: Klucel (hydroxypropylcellulose) (HPC) 86 % of control

CCCCCCCCCCC(Sc1n[nH]c(=O)[nH]c1=O)C(=O)OCC (stereo not given)
inactive: dose: 12.5 mg/kg/injection, schedule: Q01DX005 (ip), vehicle: distilled water + Tween-80 97 % of control | dose: 25.0 mg/kg/injection, schedule: Q01DX005 (ip), vehicle: distilled water + Tween-80 97 % of control | dose: 50.0 mg/kg/injection, schedule: Q01DX005 (ip), vehicle: distilled water + Tween-80 95 % of control | dose: 100.0 mg/kg/injection, schedule: Q01DX005 (ip), vehicle: distilled water + Tween-80 95 % of control | dose: 200.0 mg/kg/injection, schedule: Q01DX005 (ip), vehicle: distilled water + Tween-80 97 % of control

O=C1C(=O)C(c2ccccc2)(c2ccccc2)c2cc(-c3ccccc3)c(-c3ccccc3)cc21
inactive: dose: 25.0 mg/kg/injection, schedule: Q04DX003 (ip), vehicle: saline with Tween-80 93 % of control | dose: 50.0 mg/kg/injection, schedule: Q04DX003 (ip), vehicle: saline with Tween-80 89 % of control | [1] 93 % of control

COC(=O)CNC(=O)C(Cc1ccc(OCc2ccccc2)cc1)NC(=O)OC(C)(C)C (stereo not given)
inactive: [1] 91 % of control | [2] 91 % of control | [3] 95 % of control

COc1cc(/C=C(\C#N)c2ccc(Cl)cc2)ccc1OCc1ccccc1
inactive: dose: 50.0 mg/kg/injection, schedule: Q01DX009 (ip), vehicle: saline with Tween-80 95 % of control | dose: 100.0 mg/kg/injection, schedule: Q01DX009 (ip), vehicle: saline with Tween-80 90 % of control | [1] 89 % of control | dose: 200.0 mg/kg/injection, schedule: Q01DX009 (ip), vehicle: saline with Tween-80 90 % of control | [2] 89 % of control | [3] 89 % of control

CC(=O)Oc1cccc(/C=C/[N+](=O)[O-])c1
inactive: dose: 75.0 mg/kg/injection, schedule: Q01DX001 (ip), vehicle: steriod suspending solution 97 % of control | dose: 150.0 mg/kg/injection, schedule: Q01DX001 (ip), vehicle: steriod suspending solution 97 % of control | dose: 300.0 mg/kg/injection, schedule: Q01DX001 (ip), vehicle: steriod suspending solution 110 % of control

COc1ccc(Nc2ccnc3cc(Cl)ccc23)cc1CN(CCCl)CCCl
inactive: dose: 6.25 mg/kg/injection, schedule: Q01DX009 (ip), vehicle: saline 117 % of control | [4] 88 % of control
